1 compound from US20130131139A1, “ROR1 AS A GENE TARGET IN ACUTE LYMPHOBLASTIC LEUKEMIA” (Oregon Health & Science University, priority 2011, published 2013) can be followed below.

Structures are written as SMILES. pIC50: −log10 of the molar value.

The test system of this experiment is leukemia cells from eight other ALL patients. In words: Dasatinib cell viability (MTS assay), primary cells of other ALL subsets. It is filed as cell-based. As to conditions: Homo sapiens, 72 h; eight other ALL samples; highest tested concentration 1000 nM; 3 days. Background: Tetrazolium dyes change colour on reduction, which living cells bring about.

What is called pIC50 is the IC50 on a negative log10 scale, so that one unit is a factor of ten. Low values mean a high IC50, high ones a low IC50.

In turn, `Cc1nc(Nc2ncc(C(=O)Nc3c(C)cccc3Cl)s2)cc(N2CCN(CCO)CC2)n1` [dasatinib] showed a pIC50 below 6.00.
